Experimental data reported in ChEMBL document CHEMBL4402516, “5-Lipoxygenase as a drug target: A review on trends in inhibitors structural design, SAR and mechanism based approach” (Bioorg Med Chem, 2019).
Values belong to the molecule of their own block, whether it stands above or below them.

Legend:
[1] = target: T1, Polyunsaturated fatty acid 5-lipoxygenase (Homo sapiens, UniProt P09917); test: Inhibition of human leukocyte 5-LOX using arachidonic acid as substrate by UV/Vis spectrophotometry
T1 sequence (P09917 whole entry): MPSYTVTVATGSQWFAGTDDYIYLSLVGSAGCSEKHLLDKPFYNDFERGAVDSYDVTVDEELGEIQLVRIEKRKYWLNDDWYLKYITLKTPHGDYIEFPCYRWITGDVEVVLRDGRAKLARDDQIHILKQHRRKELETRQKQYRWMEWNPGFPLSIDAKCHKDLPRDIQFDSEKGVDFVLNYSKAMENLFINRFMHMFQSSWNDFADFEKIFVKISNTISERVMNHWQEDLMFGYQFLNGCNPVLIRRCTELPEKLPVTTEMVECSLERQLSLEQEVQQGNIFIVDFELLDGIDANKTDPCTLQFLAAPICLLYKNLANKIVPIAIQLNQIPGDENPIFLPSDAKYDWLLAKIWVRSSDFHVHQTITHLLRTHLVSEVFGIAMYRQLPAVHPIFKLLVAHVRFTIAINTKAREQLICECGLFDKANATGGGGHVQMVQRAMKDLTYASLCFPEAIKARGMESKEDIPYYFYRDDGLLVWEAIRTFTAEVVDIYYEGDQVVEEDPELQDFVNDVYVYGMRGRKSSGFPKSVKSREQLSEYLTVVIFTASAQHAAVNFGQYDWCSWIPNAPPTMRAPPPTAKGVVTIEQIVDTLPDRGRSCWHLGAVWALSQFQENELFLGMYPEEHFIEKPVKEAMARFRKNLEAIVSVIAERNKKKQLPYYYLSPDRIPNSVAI

[2] = Inhibition of soybean 15-LOX by spectrophotometric method; design: species or system Glycine max
[3] = target: Prostaglandin E synthase/G/H synthase 2 (Homo sapiens) (UniProt P35354+O14684); test: Inhibition of COX2/mPGES1 in TNFalpha-induced human HeLa cells assessed as reduction in PGE2 production at 50 uM incubated for 3 hrs by EIA relative to control; type: cell-based
Chain of Prostaglandin E synthase/G/H synthase 2 (Homo sapiens) (O14684 whole entry, looked up): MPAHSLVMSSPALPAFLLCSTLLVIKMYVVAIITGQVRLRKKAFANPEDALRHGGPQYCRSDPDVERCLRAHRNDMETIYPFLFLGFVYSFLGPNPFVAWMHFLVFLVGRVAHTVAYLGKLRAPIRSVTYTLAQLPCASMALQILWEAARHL
Chain of Prostaglandin E synthase/G/H synthase 2 (Homo sapiens) (P35354 whole entry, looked up): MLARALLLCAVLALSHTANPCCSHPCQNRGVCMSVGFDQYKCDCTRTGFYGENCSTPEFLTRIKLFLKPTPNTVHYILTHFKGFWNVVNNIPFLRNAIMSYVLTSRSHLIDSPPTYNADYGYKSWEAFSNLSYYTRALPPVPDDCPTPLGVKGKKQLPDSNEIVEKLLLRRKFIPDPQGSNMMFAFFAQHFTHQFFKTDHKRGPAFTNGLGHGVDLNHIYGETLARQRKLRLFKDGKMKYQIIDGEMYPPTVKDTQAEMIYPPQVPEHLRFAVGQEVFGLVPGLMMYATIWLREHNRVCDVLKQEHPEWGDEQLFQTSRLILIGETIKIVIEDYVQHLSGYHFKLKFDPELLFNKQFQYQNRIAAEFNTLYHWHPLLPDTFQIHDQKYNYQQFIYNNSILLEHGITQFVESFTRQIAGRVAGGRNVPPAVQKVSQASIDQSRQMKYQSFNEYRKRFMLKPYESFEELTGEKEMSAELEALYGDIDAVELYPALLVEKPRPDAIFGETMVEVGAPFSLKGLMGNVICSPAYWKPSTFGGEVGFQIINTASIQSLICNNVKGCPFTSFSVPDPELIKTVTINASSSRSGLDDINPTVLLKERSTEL

[4] = target: T2, Polyunsaturated fatty acid 5-lipoxygenase (Homo sapiens) (UniProt P09917); test: Inhibition of recombinant human 5-LOX expressed in Escherichia coli BL21 cells at 50 uM using arachidonic acid as substrate by UV-vis spectrophotometry relative to control
T2 sequence (whole entry): T1 sequence (P09917 whole entry)

[5] = target: T1, Polyunsaturated fatty acid 5-lipoxygenase; test: Inhibition of recombinant human 5-LOX expressed in Escherichia coli BL21 (DE3) cells preincubated for 10 mins followed by arachidonic acid addition and measured after 10 mins by RP-HPLC method
Glycine max = test: Inhibition of soybean 5-LOX at 100 uM incubated for 10 mins relative to control
MCF7 = test: Antiproliferative activity against human MCF7 cells by MTT assay; type: functional, cell-based
[6] = target: T1, Polyunsaturated fatty acid 5-lipoxygenase; test: Inhibition of recombinant human 5-LOX expressed in baculovirus-infected insect cells preincubated for 10 mins followed by Arachidonic acid and ATP addition and measured after 20 mins by H2DCFD dye based fluorescence method
[7] = target: T2, Polyunsaturated fatty acid 5-lipoxygenase (Homo sapiens); test: Inhibition of 5-LOX in human whole blood preincubated for 10 mins followed by Arachidonic acid and ATP addition and measured after 20 mins by H2DCFD dye based fluorescence method; type: tissue-based
[8] = target: T1, Polyunsaturated fatty acid 5-lipoxygenase; test: Inhibition of human PMNL 5-LOX using arachidonic acid as substrate after 5 mins by HPLC method
[9] = target: T1, Polyunsaturated fatty acid 5-lipoxygenase; test: Inhibition of 5-LOX (unknown origin) after 5 mins by colorimetric method
[10] = target: T1, Polyunsaturated fatty acid 5-lipoxygenase; test: Inhibition of 5-LOX in A23187-stimulated human neutrophils preincubated for 15 mins followed by A23187 stimulation and measured after 10 mins
[11] = target: T3, Polyunsaturated fatty acid 5-lipoxygenase (Rattus norvegicus, UniProt P12527); test: Inhibition of rat 5-LOX expressed in insect sf21 cells preincubated for 4 mins followed by Arachidonic acid addition and measured after 4 mins by FOX assay
T3 sequence (P12527 whole entry): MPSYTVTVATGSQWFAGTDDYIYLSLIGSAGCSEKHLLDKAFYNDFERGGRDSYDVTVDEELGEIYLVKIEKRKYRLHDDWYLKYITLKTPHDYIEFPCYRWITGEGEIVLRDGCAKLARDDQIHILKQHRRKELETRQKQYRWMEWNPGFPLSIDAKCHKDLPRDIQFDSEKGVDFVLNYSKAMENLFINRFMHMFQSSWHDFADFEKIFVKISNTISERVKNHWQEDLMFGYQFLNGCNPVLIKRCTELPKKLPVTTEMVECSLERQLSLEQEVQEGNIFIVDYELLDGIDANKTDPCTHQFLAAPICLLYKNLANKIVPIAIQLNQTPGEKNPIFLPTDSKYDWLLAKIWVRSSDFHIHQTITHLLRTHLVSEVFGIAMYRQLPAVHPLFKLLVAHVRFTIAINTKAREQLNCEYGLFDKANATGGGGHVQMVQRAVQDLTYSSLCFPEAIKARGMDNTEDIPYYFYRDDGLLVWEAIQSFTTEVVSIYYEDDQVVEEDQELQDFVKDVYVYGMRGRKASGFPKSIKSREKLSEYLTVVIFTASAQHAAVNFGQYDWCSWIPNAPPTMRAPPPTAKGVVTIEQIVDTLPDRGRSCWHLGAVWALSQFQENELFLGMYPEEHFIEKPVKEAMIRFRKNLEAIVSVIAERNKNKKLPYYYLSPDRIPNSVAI

[12] = target: T4, Polyunsaturated fatty acid 5-lipoxygenase (Rattus norvegicus) (UniProt P12527); test: Inhibition of 5-LOX in rat RBL-1 cells assessed as reduction in LTB4 secretion at 1 uM preincubated for 10 mins followed by A23187 stimulation and measured after 15 mins by EIA; type: cell-based
T4 sequence (whole entry): T3 sequence (P12527 whole entry)

[13] = target: T4, Polyunsaturated fatty acid 5-lipoxygenase (Rattus norvegicus); test: Inhibition of rat 5-LOX expressed in insect sf21 cells at 1 uM preincubated for 4 mins followed by Arachidonic acid addition and measured after 4 mins by FOX assay relative to control
[14] = target: T1, Polyunsaturated fatty acid 5-lipoxygenase; test: Competitive inhibition of recombinant human 5-LOX expressed in Escherichia coli BL21 cells using Arachidonic acid as substrate by UV absorbance
[15] = Inhibition of potato 5-LOX using linoleic acid as substrate measured at 2 min by UV absorbance method; design: species or system Solanum tuberosum

SMILES: CS(=O)(=O)NC(Cc1cc(I)c(OCc2ccon2)c(I)c1)C(=O)O (stereo unspecified)
inhibition [3]: 66% | inhibition [4]: 74%

SMILES: Cn1nccc1-c1ccc(Sc2ccc(C3(C(N)=O)CCOCC3)cc2)cc1
IC50 [6]: 0.229 µM | IC80 [7]: 0.37 µM

SMILES: O=C(/C=C/C=C/c1ccc2c(c1)OCO2)N1CCCCC1 [PIPERINE]
IC50 [8]: 54 µM

SMILES: C=CCSCC=C [DIALLYL SULFIDE]
IC50 [8]: 83 µM

SMILES: CC(C)=CCn1cc(/C=N/NC(N)=O)c2cc(Br)ccc21
IC50 [11]: 0.12 µM

SMILES: COc1ccc(/C=C2\SC(c3ccc4ccccc4c3)=NC2=O)cc1
inhibition [12]: 98% | inhibition [13]: 96%

SMILES: O=C/C=C/c1ccccc1
IC50 [8]: 35 µM

SMILES: COc1cc(CNC(=O)CCCC/C=C/C(C)C)ccc1O [CAPSAICIN]
IC50 [8]: 56 µM

SMILES: C=CCc1ccc(O)c(OC)c1 [EUGENOL]
IC50 [8]: 26 µM

SMILES: Clc1ccc(-c2cc(-c3c[nH]c4ccccc34)cc(-c3ccc(Cl)cc3)n2)cc1
IC50 [14]: 10 µM

SMILES: O=C(c1[nH]nc2c1CSc1sc(Br)cc1-2)N1CCN(c2ccccc2F)CC1
IC50 [15]: 33.7 µM

The remaining lines, values ahead:

IC50 [1]: 0.17 µM
SMILES: Cc1ccc(S(=O)(=O)n2c(C(=O)C(=O)N3CCCC3)cc3ccccc32)cc1

IC50 [2]: 10.3 µM
SMILES: CCCCCC(=O)c1c(O)cc(O)c(C/C=C(\C)CCC=C(C)C)c1O

IC50 [5]: 0.1 µM
SMILES: O=C(NCCCCCCCCCNC(=O)c1cccc(O)c1O)c1cccc(O)c1O

inhibition (Glycine max): 68% | IC50 (MCF7): 0.9 µM
SMILES: NCCCC(=O)c1cc(=O)c2cc(F)ccc2o1

IC50 [9]: 48.3 µM
SMILES: Cc1cc(Nc2ncc(-c3ccc(F)cc3)o2)cc(C)c1O

IC50 [10]: 0.9 µM
SMILES: Cc1cccc(OC(=O)c2cc([N+](=O)[O-])cc([N+](=O)[O-])c2)c1
